# Source: article PMC5840146, “Structure-Activity Relationship Analysis of 3-Phenylcoumarin-Based Monoamine Oxidase B Inhibitors” (Frontiers in Chemistry, 2018)
# Several values for one entry are separate records, joined by “and”; a condition that tells them apart may be missing. Equal entries are not always repeated. Where two headings read alike, the source gives them in different places.
# Tests used:
# Type in all cases: biochemical
# MAO-B = target: T1, MAO-B (Homo sapiens, UniProt P27338); experiment: continuous spectrophotometric MAO-B inhibition assay; conditions: for LiPE: LiPE = pIC50 - QPlogPo/w, new analogs and pargyline; for IC50: duplicates; for MAO-B inhibition %: 10 µM, 2h
# T1 construct: purchased Sigma-Aldrich
# T1 sequence (P27338 1-520): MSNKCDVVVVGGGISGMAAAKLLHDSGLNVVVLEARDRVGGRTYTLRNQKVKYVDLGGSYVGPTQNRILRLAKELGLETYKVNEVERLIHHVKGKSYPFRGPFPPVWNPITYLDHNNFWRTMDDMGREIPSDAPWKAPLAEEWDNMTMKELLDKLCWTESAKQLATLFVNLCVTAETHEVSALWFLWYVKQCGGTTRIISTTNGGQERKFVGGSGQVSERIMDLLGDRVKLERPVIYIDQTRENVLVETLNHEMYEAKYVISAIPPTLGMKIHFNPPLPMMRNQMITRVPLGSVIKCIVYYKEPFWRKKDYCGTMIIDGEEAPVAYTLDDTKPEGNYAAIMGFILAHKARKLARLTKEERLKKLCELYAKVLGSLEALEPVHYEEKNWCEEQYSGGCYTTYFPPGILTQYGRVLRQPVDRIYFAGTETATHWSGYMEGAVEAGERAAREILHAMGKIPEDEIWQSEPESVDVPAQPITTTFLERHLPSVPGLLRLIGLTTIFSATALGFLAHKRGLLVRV
# Method: (§1) Both monoamine oxidase A (MAO-A) and B (MAO-B) protein and the reagents for the chromogenic solution of vanillic acid (4-hydroxy-3-methoxylbenzoic acid, 97% purity), 4-aminoantipyrine (reagent grade), horseradish peroxidase and the substrate tyramine hydrochloride (minimum 99% purity) as well as the potassium phosphate buffer, which was prepared using potassium phosphate dibasic trihydrate (≥99% ReagentPlus™) and potassium phosphate monobasic (minimum 98% purity, molecular biology tested), were purchased from Sigma-Aldrich (St. Louis, MO, USA) for the spectrophotometric assay.
# (§2) The protocol for continuous spectrophotometric assay (Holt et al., [1997]) was followed in the activity measurements. The assay was performed in 0.2 M potassium phosphate buffer pH 7.6 on 96-well plates (Nunc™ 96F microwell plate without a lid, Nunc A/S, Roskilde, DK) in 200 μl total volume. The chromogenic solution containing 1 mM vanillic acid, 500 μM 4-aminoantipyrine and 8 U/ml horseradish peroxidase in 0.2 M potassium phosphate buffer pH 7.6 was mixed anew for each measurement. 5 mM tyramine solution was used as the substrate. In order to determine the activity of both MAO-B and MAO-A, concentration series as duplicates were prepared. The protein was combined with the chromogenic solution and incubated 30 min at 37°C. The background signal was measured using multilabel reader (Victor^TM X4, 2030 Multilabel Reader, PerkinElmer, Waltham, MA, USA) at A490 before reaching the total 200 μl volume by adding 20 μl of tyramine to final concentration of 0.5 mM on the plate. As a result, the final concentration of the chromogenic solution on the plate was 250 μM vanillic acid, 125 μM 4-aminoantipyrine and 2 U/ml horseradish peroxide. After adding the substrate, the plates were measured 300 times every 15 s using 1 s exposure time. The device was set to 37°C for the duration of the experiment.
# (§3) The experiment conditions should produce absorbance change of ~0.35 (Holt et al., [1997]). […] The same wide panel of coumarin derivatives was additionally used to analyze the MAO-A inhibition at 100 μM (Table 1, Supplementary Table S1).
# (§4) The measured data was then fitted on a curve using non-linear regression with the equation for log[inhibitor] vs. response. The IC50 values were therefore determined based on the curve fit. The fitted curves are shown on –log scale in Supplementary Figures S1, S2.
# MAO-A = target: T2, MAO-A (Homo sapiens, UniProt P21397); experiment: continuous spectrophotometric MAO-A inhibition assay; conditions: for MAO-A inhibition %: 100 µM, 1h
# T2 construct: purchased Sigma-Aldrich
# T2 sequence (P21397 1-527): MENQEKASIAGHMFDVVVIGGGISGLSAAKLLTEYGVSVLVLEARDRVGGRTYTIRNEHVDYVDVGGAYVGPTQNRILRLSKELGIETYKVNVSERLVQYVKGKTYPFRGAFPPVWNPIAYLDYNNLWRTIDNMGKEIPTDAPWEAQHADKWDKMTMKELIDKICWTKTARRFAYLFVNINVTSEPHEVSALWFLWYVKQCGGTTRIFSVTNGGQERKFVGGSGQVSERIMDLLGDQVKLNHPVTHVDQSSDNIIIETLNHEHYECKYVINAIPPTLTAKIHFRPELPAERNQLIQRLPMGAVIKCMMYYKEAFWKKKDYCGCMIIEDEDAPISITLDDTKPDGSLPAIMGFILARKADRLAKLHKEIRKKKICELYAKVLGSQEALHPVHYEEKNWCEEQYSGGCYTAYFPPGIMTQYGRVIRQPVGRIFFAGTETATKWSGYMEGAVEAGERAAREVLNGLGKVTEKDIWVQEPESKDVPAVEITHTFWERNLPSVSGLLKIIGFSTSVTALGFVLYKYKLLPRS
# Method: as §1, §2, §3, §4
# recombinant human HSD1 = target: T3, recombinant human HSD1 (Homo sapiens, UniProt P14061); experiment: HSD1 inhibition by HPLC with tritium labeled estrone/estradiol; conditions: for inhibition at 1 µM / HSD1 inhibition %: 1 μM
# T3 construct: made in house; host or cells: Sf9 insect cells
# T3 sequence (P14061 1-328): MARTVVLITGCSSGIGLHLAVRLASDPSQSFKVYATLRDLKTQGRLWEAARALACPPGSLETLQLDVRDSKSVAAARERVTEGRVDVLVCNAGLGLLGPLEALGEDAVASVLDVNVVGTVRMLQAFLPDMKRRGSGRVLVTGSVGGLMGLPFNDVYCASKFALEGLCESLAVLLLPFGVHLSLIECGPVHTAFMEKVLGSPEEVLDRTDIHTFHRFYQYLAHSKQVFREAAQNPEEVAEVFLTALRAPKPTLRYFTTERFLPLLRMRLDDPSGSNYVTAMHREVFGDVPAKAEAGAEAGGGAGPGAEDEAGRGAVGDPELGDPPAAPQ
# human CYP1A2 = target: T4, human CYP1A2 (Homo sapiens, UniProt P05177); experiment: CYP1A2 inhibition, 7-ethoxyresorufin fluorescence assay
# T4 construct: purchased Corning Inc
# T4 sequence (P05177 1-516): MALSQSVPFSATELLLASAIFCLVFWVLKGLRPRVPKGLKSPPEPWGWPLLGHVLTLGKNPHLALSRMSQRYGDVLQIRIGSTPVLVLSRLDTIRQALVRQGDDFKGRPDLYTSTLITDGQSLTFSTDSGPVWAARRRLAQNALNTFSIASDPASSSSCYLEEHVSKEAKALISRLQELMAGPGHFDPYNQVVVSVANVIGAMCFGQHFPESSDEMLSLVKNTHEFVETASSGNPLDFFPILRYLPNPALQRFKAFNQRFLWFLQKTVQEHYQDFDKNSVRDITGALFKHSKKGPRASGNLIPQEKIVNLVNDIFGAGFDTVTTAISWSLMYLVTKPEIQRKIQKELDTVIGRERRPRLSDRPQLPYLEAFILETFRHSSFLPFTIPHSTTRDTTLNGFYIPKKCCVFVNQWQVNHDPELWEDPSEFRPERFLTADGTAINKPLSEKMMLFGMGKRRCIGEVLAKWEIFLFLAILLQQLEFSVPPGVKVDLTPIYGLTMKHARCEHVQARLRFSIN
# Method: Inhibition of CYP1A2 activity was determined with commercial heterologously expressed human CYP1A2 enzyme (Corning Inc., Corning, NY, USA) as described earlier (Korhonen et al., [2005]). The metabolic activity was not in the scope of this particular study. The assay was adapted to the 96-well plate format. In each well, a 150 μL incubation volume contained 100 mM Tris-HCl buffer (pH 7.4), 4.2 mM MgCl2,1 μM 7-ethoxyresorufin, 0.5 pmol of cDNA expressed CYP1A2, […] inhibitor, and a NADPH-generating system. All inhibitors were dissolved in ethanol, and the final concentration of ethanol was 2% in all incubations. The reaction was initiated by adding the NADPH-regenerating system after a 10 min preincubation at 37°C, and after a 20 min incubation, the reaction was terminated by the addition of 110 μL of 80% acetonitrile/20% 0.5 M Tris base. The formed fluorescence was measured with a Victor2 plate counter (Perkin-Elmer Life Sciences Wallac, Turku, Finland) at 570 nm excitation and 616 nm emission.
# [1] = dilution series 50 μM to 1 nM, read-out: MAO-B inhibition IC50
inhibition at 10 µM (MAO-B) [%],LiPE (MAO-B),inhibition at 100 µM (MAO-A; 100 μM) [%],inhibition at 1 µM (recombinant human HSD1) [%],IC50 (human CYP1A2) [µM],IC50 (MAO-B; [1]),MAO-B inhibition % (MAO-B) [%],MAO-A inhibition % (MAO-A) [%],HSD1 inhibition % (recombinant human HSD1) [%],Structure (SMILES),"IC50 (MAO-B; MAO-B inhibition IC50, dilution series 50 μM to 1 nM)",MAO-A inhibition (in words) (MAO-A; 100 μM),HSD1 inhibition (in words) (recombinant human HSD1)
100,3.52,22,0,280,~0.141 µM and 0.141 µM,,,,"CC(=O)Oc1ccc2cc(-c3ccc(OC(F)(F)F)cc3)c(=O)oc2c1 [derivative 3, 2-oxo-3-(4-(trifluoromethoxy)phenyl)-2H-chromen-7-yl acetate]",,,
102,2.28,0,0,7,0.317 µM,,,,"COc1ccc2oc(=O)c(-c3ccc(OC(F)(F)F)cc3)cc2c1 [derivative 4, 6-methoxy-3-(4-(trifluoromethoxy)phenyl)-2H-chromen-2-one]",,,
99.9,4.25,0,21,,~0.189 µM and 0.189 µM,,,,"COc1ccc2cc(-c3ccc(OC(C)=O)c(F)c3)c(=O)oc2c1 [derivative 6, 2-fluoro-4-(7-methoxy-2-oxo-2H-chromen-3-yl)phenyl acetate]",,,
91,2.69,0,0,46,0.888 µM,,,,"CC(=O)Oc1ccc(-c2cc3cc(Cl)cc(Cl)c3oc2=O)cc1F [derivative 7, 4-(6,8-dichloro-2-oxo-2H-chromen-3-yl)-2-fluorophenyl acetate]",,,
80.2,3.38,0,0,84,~0.255 µM and 0.255 µM,,,,"COc1cc(OC)cc(-c2cc3cc(OC)ccc3oc2=O)c1 [derivative 9, 3-(3,5-dimethoxyphenyl)-6-methoxy-2H-chromen-2-one]",,,
97.6,3.25,10.1,0,15,0.4 µM,,,,"COc1ccc(-c2cc3cc(OC)ccc3oc2=O)cc1 [derivative 10, 6-methoxy-3-(4-methoxyphenyl)-2H-chromen-2-one]",,,
85.9,3.30,2.48,0,570,1.95 µM,,,,"COc1ccc(-c2cc3ccc(OC(C)=O)cc3oc2=O)cc1 [derivative 13, 3-(4-methoxyphenyl)-2-oxo-2H-chromen-7-yl acetate]",,,
75.8,2.73,,1,87.5,8.48 µM,,,,"COc1ccc(-c2cc3cc(OC(C)=O)ccc3oc2=O)cc1 [derivative 14, 3-(4-methoxyphenyl)-2-oxo-2H-chromen-6-yl acetate]",,,
90.1,3.62,4.74,5,35,0.384 µM,,,,"CN(C)c1ccc(-c2cc3ccc(O)cc3oc2=O)cc1 [derivative 17, 3-(4-(dimethylamino)phenyl)-7-hydroxy-2H-chromen-2-one]",,,
85.4,3.27,0,15,370,0.866 µM,,,,"CC(=O)Oc1ccc2cc(-c3ccc(N(C)C)cc3)c(=O)oc2c1 [derivative 19, 3-(4-(dimethylamino)phenyl)-2-oxo-2H-chromen-7-yl acetate]",,,
,,,,7,,66.79,0.00,0.00,CC(=O)Oc1cccc2cc(-c3ccc(N(C)C)cc3)c(=O)oc12 [derivative 26],,,
,,,,800,,47.77,0.00,,COc1ccc(-c2cc3cc(Cl)cc(Cl)c3oc2=O)cc1 [derivative 32],,,
,,,,30,,46.01,0.00,0.30,COc1cc(OC)cc(-c2cc3cc(Cl)cc(Cl)c3oc2=O)c1 [derivative 34],,,
,,,,26,,42.37,4.08,0.00,COc1ccc(-c2cc3cccc(OC(C)=O)c3oc2=O)cc1 [derivative 35],,,

Structure (SMILES),inhibition at 10 µM (MAO-B) [%],LiPE (MAO-B),inhibition at 100 µM (MAO-A; 100 μM) [%],inhibition at 1 µM (recombinant human HSD1) [%],IC50 (human CYP1A2) [µM],IC50 (MAO-B; [1]),MAO-B inhibition % (MAO-B) [%],MAO-A inhibition % (MAO-A) [%],HSD1 inhibition % (recombinant human HSD1) [%],"IC50 (MAO-B; MAO-B inhibition IC50, dilution series 50 μM to 1 nM)",MAO-A inhibition (in words) (MAO-A; 100 μM),HSD1 inhibition (in words) (recombinant human HSD1)
"COc1ccc2oc(=O)c(-c3ccc(C(F)(F)F)cc3)cc2c1 [derivative 1, 6-methoxy-3-(4-(trifluoromethyl)phenyl)-2H-chromen-2-one]",99.5,3.17,0,0,124,,,,,~0.056 µM and 0.05 to 0.06 µM and 0.056 µM,does not produce MAO-A inhibition,does not inhibit HSD1
"C#CCN(C)Cc1ccccc1 [pargyline, reference compound]",102,,,,,,,,,,,
